Data published in patent publication US9902702B2, “Spirocycloheptanes as inhibitors of rock” (BRISTOL-MYERS SQUIBB COMPANY, priority 2014, dated 2018).

Biological target: ROCK2 (Homo sapiens, UniProt O75116)
Test: ROCK assay: phosphorylation of FITC peptide substrate, LABCHIP 3000 mobility shift
Type: biochemical
Conditions: 5 μM ATP, 1.5 μM peptide substrate; read-out: ROCK2 Activity (ROCK IC50 range)
Procedure, shortened: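 Rho kinase variant phosphorylates 1.5 μM FITC-AHA-AKRRRLSSLRA-OH with 5 μM ATP in 20 mM HEPES pH 7.5, 20 mM MgCl2, 0.015% Brij-35, 4 mM DTT, DMSO <2%. EDTA stops the reaction, and phospho and non-phospho peptides are resolved by LabChip 3000 mobility shift. IC50 from dose-response curve fit.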

Sequence of ROCK2 (O75116 whole entry, species assumed): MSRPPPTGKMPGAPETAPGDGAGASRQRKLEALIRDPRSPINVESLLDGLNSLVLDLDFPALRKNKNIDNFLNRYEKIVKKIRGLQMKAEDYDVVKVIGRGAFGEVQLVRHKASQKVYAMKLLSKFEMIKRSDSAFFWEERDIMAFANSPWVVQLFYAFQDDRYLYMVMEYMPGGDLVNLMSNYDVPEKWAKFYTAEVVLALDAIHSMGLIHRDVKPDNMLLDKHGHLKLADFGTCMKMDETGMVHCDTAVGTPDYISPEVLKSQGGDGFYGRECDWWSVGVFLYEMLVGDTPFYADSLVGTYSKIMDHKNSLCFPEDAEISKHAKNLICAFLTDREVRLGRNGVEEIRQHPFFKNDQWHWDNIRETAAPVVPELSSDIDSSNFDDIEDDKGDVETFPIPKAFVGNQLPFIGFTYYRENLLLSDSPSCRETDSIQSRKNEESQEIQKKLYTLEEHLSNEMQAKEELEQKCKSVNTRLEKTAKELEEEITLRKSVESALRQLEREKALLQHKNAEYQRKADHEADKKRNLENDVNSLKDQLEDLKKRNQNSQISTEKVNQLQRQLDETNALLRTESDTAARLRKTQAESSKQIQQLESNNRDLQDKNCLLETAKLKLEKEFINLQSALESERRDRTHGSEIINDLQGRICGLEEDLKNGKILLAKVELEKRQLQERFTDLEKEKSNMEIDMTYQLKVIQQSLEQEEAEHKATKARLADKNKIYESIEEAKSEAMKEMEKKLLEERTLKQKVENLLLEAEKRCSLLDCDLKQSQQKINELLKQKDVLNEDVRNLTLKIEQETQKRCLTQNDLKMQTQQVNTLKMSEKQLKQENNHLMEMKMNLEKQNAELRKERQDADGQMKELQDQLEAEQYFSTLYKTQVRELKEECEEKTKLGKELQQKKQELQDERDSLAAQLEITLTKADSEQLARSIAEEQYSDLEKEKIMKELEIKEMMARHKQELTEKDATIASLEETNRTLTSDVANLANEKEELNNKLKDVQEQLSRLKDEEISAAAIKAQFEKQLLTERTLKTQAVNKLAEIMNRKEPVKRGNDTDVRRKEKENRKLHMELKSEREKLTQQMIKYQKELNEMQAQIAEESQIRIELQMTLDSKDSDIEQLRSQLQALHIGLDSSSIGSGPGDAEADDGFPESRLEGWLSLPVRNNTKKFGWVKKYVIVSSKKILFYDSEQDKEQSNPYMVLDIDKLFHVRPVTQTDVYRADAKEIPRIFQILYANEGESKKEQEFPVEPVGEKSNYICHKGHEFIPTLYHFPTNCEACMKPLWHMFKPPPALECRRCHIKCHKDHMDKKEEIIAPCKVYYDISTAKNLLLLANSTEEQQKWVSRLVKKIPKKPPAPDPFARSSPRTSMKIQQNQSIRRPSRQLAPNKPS

| Structure (SMILES) | IC50 |
| --- | --- |
| N#CCCc1ccc2c(C(=O)NC3CC4(C3)CC(c3n[nH]c(=O)c5ccccc35)C4)cnn2c1 [Example 207, 6-(2-cyanoethyl)-N-((aR)-6-(4-oxo-3,4-dihydrophthalazin-1-yl)spiro[3.3]heptan-2-yl)pyrazolo[1,5-a]pyridine-3-carboxamide] | 2.01 to 5 nM |
| O=C(NC1CC2(C1)CC(c1n[nH]c(=O)c3ccccc13)C2)c1cnn2cc(COCCN3CCOCC3)ccc12 [Example 208, 6-((2-morpholinoethoxy)methyl)-N-((aR)-6-(4-oxo-3,4-dihydrophthalazin-1-yl)spiro[3.3]heptan-2-yl)pyrazolo[1,5-a]pyridine-3-carboxamide] | 2.01 to 5 nM |
| COCc1ccc2c(C(=O)NC3CC4(C3)CC(c3n[nH]c(=O)c5ccccc35)C4)cnn2c1 [Example 209, 6-(methoxymethyl)-N-((aR)-6-(4-oxo-3,4-dihydrophthalazin-1-yl)spiro[3.3]heptan-2-yl)pyrazolo[1,5-a]pyridine-3-carboxamide] | 5.1 to 15 nM |
| COc1ncc(-c2ccc3c(C(=O)NC4CC5(C4)CC(c4n[nH]c(=O)c6ccccc46)C5)cnn3c2)cn1 [Example 210, 6-(2-methoxypyrimidin-5-yl)-N-((aR)-6-(4-oxo-3,4-dihydrophthalazin-1-yl)spiro[3.3]heptan-2-yl)pyrazolo[1,5-a]pyridine-3-carboxamide] | 2.01 to 5 nM |
| O=C(NC1CC2(C1)CC(c1n[nH]c(=O)c3ccccc13)C2)c1cnn2cc(COCC3CCOCC3)ccc12 [Example 211, N-((aR)-6-(4-oxo-3,4-dihydrophthalazin-1-yl)spiro[3.3]heptan-2-yl)-6-(((tetrahydro-2H-pyran-4-yl)methoxy)methyl)pyrazolo[1,5-a]pyridine-3-carboxamide] | 2.01 to 5 nM |
| [H][C@]1(c2n[nH]c(=O)c3ccccc32)C[C@]2(C[C@@H](NC(=O)c3cnn4cc(COCC=C)ccc34)C2)C1 (stereo partly drawn) [Example 212, 6-((allyloxy)methyl)-N-((aR)-6-(4-oxo-3,4-dihydrophthalazin-1-yl)spiro[3.3]heptan-2-yl)pyrazolo[1,5-a]pyridine-3-carboxamide] | 0.2 to 2 nM |
| O=C(N[C@H]1CC2(C1)C[C@H](c1n[nH]c(=O)c3ccccc31)C2)c1cnn2cc(CO)ccc12 (stereo partly drawn) [Example 213, 6-(hydroxymethyl)-N-((aR)-6-(4-oxo-3,4-dihydrophthalazin-1-yl)spiro[3.3]heptan-2-yl)pyrazolo[1,5-a]pyridine-3-carboxamide] | 5.1 to 15 nM |
| CC(=O)c1ccc2c(C(=O)N[C@H]3CC4(C3)C[C@H](c3n[nH]c(=O)c5ccccc53)C4)cnn2c1 (stereo partly drawn) [Example 214, 6-acetyl-N-((aR)-6-(4-oxo-3,4-dihydrophthalazin-1-yl)spiro[3.3]heptan-2-yl)pyrazolo[1,5-a]pyridine-3-carboxamide] | 2.01 to 5 nM |
| CC(C)(O)c1ccc2c(C(=O)N[C@H]3CC4(C3)C[C@H](c3n[nH]c(=O)c5ccccc53)C4)cnn2c1 (stereo partly drawn) [Example 215, 6-(2-hydroxypropan-2-yl)-N-((aR)-6-(4-oxo-3,4-dihydrophthalazin-1-yl)spiro[3.3]heptan-2-yl)pyrazolo[1,5-a]pyridine-3-carboxamide] | 5.1 to 15 nM |
| Cc1c(-c2ccc3c(C(=O)N[C@H]4CC5(C4)C[C@H](c4n[nH]c(=O)c6ccccc64)C5)cnn3c2)cnn1C (stereo partly drawn) [Example 216, 6-(1,5-dimethyl-1H-pyrazol-4-yl)-N-((aR)-6-(4-oxo-3,4-dihydrophthalazin-1-yl)spiro[3.3]heptan-2-yl)pyrazolo[1,5-a]pyridine-3-carboxamide] | 0.2 to 2 nM |
| O=C(NC1CC2(C1)CC(c1n[nH]c(=O)c3ccccc13)C2)c1cnn2cc(-c3cnn(C4CC4)c3)ccc12 [Example 217, 6-(1-cyclopropyl-1H-pyrazol-4-yl)-N-((aR)-6-(4-oxo-3,4-dihydrophthalazin-1-yl)spiro[3.3]heptan-2-yl)pyrazolo[1,5-a]pyridine-3-carboxamide] | 0.2 to 2 nM |
| O=C(NC1CC2(C1)CC(c1n[nH]c(=O)c3ccccc13)C2)c1cnn2cc(-c3cnn(CC4CC4)c3)ccc12 [Example 218, 6-(1-(cyclopropylmethyl)-1H-pyrazol-4-yl)-N-((aR)-6-(4-oxo-3,4-dihydrophthalazin-1-yl)spiro[3.3]heptan-2-yl)pyrazolo[1,5-a]pyridine-3-carboxamide] | 0.2 to 2 nM |
| [2H]C([2H])([2H])n1cc(-c2ccc3c(C(=O)NC4CC5(C4)CC(c4n[nH]c(=O)c6ccccc46)C5)cnn3c2)cn1 (centres unmarked) [Example 219] | 0.2 to 2 nM |
| CC(C)n1cc(-c2ccc3c(C(=O)NC4CC5(C4)CC(c4n[nH]c(=O)c6ccccc46)C5)cnn3c2)cn1 [Example 220, 6-(1-isopropyl-1H-pyrazol-4-yl)-N-((aR)-6-(4-oxo-3,4-dihydrophthalazin-1-yl)spiro[3.3]heptan-2-yl)pyrazolo[1,5-a]pyridine-3-carboxamide] | 0.2 to 2 nM |
| Cc1nn(C)c(C)c1-c1ccc2c(C(=O)NC3CC4(C3)CC(c3n[nH]c(=O)c5ccccc35)C4)cnn2c1 [Example 221, N-((aR)-6-(4-oxo-3,4-dihydrophthalazin-1-yl)spiro[3.3]heptan-2-yl)-6-(1,3,5-trimethyl-1H-pyrazol-4-yl)pyrazolo[1,5-a]pyridine-3-carboxamide] | 0.2 to 2 nM |
| O=C(NC1CC2(C1)CC(c1n[nH]c(=O)c3ccccc13)C2)c1cnn2cc(-c3cnn(C4CCOCC4)c3)ccc12 [Example 222, N-((aR)-6-(4-oxo-3,4-dihydrophthalazin-1-yl)spiro[3.3]heptan-2-yl)-6-(1-(tetrahydro-2H-pyran-4-yl)-1H-pyrazol-4-yl)pyrazolo[1,5-a]pyridine-3-carboxamide] | 0.2 to 2 nM |
| Cn1cc(-c2ccc3c(C(=O)NC4CC5(C4)CC(c4n[nH]c(=O)c6ccccc46)C5)cnn3c2)c(C(F)(F)F)n1 [Example 223, 6-(1-methyl-3-(trifluoromethyl)-1H-pyrazol-4-yl)-N-((aR)-6-(4-oxo-3,4-dihydrophthalazin-1-yl)spiro[3.3]heptan-2-yl)pyrazolo[1,5-a]pyridine-3-carboxamide] | 0.2 to 2 nM |
| CC(C)n1cc(-c2ccc3c(C(=O)NC4CC5(C4)CC(c4n[nH]c(=O)c6ccccc46)C5)cnn3c2)c(C(F)(F)F)n1 [Example 224, 6-(1-isopropyl-3-(trifluoromethyl)-1H-pyrazol-4-yl)-N-((aR)-6-(4-oxo-3,4-dihydrophthalazin-1-yl)spiro[3.3]heptan-2-yl)pyrazolo[1,5-a]pyridine-3-carboxamide] | 0.2 to 2 nM |
| CC(C)(C)n1cc(-c2ccc3c(C(=O)NC4CC5(C4)CC(c4n[nH]c(=O)c6ccccc46)C5)cnn3c2)cn1 [Example 225, 6-(1-(tert-butyl)-1H-pyrazol-4-yl)-N-((aR)-6-(4-oxo-3,4-dihydrophthalazin-1-yl)spiro[3.3]heptan-2-yl)pyrazolo[1,5-a]pyridine-3-carboxamide] | 0.2 to 2 nM |
| O=C(NC1CC2(C1)CC(c1n[nH]c(=O)c3ccccc13)C2)c1cnn2cc(-c3cnn(C4CCOC4)c3)ccc12 [Example 226, N-((aR)-6-(4-oxo-3,4-dihydrophthalazin-1-yl)spiro[3.3]heptan-2-yl)-6-(1-(tetrahydrofuran-3-yl)-1H-pyrazol-4-yl)pyrazolo[1,5-a]pyridine-3-carboxamide] | 0.2 to 2 nM |
| O=C(Nc1ccc(Br)cc1)N[C@H]1CC2(C1)C[C@H](c1n[nH]c(=O)c3ccccc31)C2 (stereo partly drawn) [Example 227, 1-(4-bromophenyl)-3-((aR)-6-(4-oxo-3,4-dihydrophthalazin-1-yl)spiro[3.3]heptan-2-yl)urea] | 15.1 to 100 nM |
| Cn1cc(-c2ccc(NC(=O)NC3CC4(C3)CC(c3n[nH]c(=O)c5ccccc35)C4)cc2)cn1 [Example 228, 1-(4-(1-methyl-1H-pyrazol-4-yl)phenyl)-3-((aR)-6-(4-oxo-3,4-dihydrophthalazin-1-yl)spiro[3.3]heptan-2-yl)urea] | 5.1 to 15 nM |
| [2H]C([2H])([2H])n1cc(-c2ccc(NC(=O)NC3CC4(C3)CC(c3n[nH]c(=O)c5ccccc35)C4)cc2)cn1 [Example 229, 1-(4-(1-(^2H3)methyl-1H-pyrazol-4-yl)phenyl)-3-((aR)-6-(4-oxo-3,4-dihydrophthalazin-1-yl)spiro[3.3]heptan-2-yl)urea] | 5.1 to 15 nM |
| O=C(Nc1ccc(-c2cnn(C3CC3)c2)cc1)NC1CC2(C1)CC(c1n[nH]c(=O)c3ccccc13)C2 [Example 230, 1-(4-(1-cyclopropyl-1H-pyrazol-4-yl)phenyl)-3-((aR)-6-(4-oxo-3,4-dihydrophthalazin-1-yl)spiro[3.3]heptan-2-yl)urea] | 15.1 to 100 nM |
| O=C(Nc1ccc(-c2cnn(C3CCOCC3)c2)cc1)NC1CC2(C1)CC(c1n[nH]c(=O)c3ccccc13)C2 [Example 231, 1-((aR)-6-(4-oxo-3,4-dihydrophthalazin-1-yl)spiro[3.3]heptan-2-yl)-3-(4-(1-(tetrahydro-2H-pyran-4-yl)-1H-pyrazol-4-yl)phenyl)urea] | 15.1 to 100 nM |
| Cn1cc(-c2ccc(NC(=O)NC3CC4(C3)CC(c3n[nH]c(=O)c5ccccc35)C4)cc2)c(C(F)(F)F)n1 [Example 232, 1-(4-(1-methyl-3-(trifluoromethyl)-1H-pyrazol-4-yl)phenyl)-3-((aR)-6-(4-oxo-3,4-dihydrophthalazin-1-yl)spiro[3.3]heptan-2-yl)urea] | 5.1 to 15 nM |
| Cc1nn(C)c(C)c1-c1ccc(NC(=O)NC2CC3(C2)CC(c2n[nH]c(=O)c4ccccc24)C3)cc1 [Example 233, 1-((aR)-6-(4-oxo-3,4-dihydrophthalazin-1-yl)spiro[3.3]heptan-2-yl)-3-(4-(1,3,5-trimethyl-1H-pyrazol-4-yl)phenyl)urea] | 5.1 to 15 nM |
| O=C(N[C@H]1CC2(C1)C[C@H](c1n[nH]c(=O)c3ccccc31)C2)N1CCc2cc(Br)ccc21 (stereo partly drawn) [Example 234, 5-Bromo-N-((aR)-6-(4-oxo-3,4-dihydrophthalazin-1-yl)spiro[3.3]heptan-2-yl)indoline-1-carboxamide] | 2.01 to 5 nM |
| Cn1cc(-c2ccc3c(c2)CCN3C(=O)NC2CC3(C2)CC(c2n[nH]c(=O)c4ccccc24)C3)cn1 [Example 235, 5-(1-methyl-1H-pyrazol-4-yl)-N-((aR)-6-(4-oxo-3,4-dihydrophthalazin-1-yl)spiro[3.3]heptan-2-yl)indoline-1-carboxamide] | 0.2 to 2 nM |
